Consider five molecules from US20080057039A1, “Diagnostic and Therapeutic Treatments Related to Mitochondrial Disorders” (priority 2003, published 2008).

“Also recorded” adds a separate entry of the source. Some results are limits rather than exact numbers.

One data set concerns Jurkat cells. In words: Fas-induced apoptosis, cell cycle analysis by flow cytometry. In kind it is cell-based, human. The following applies: for effect on apoptosis induction by FasL constructs: Jurkat cells, FasL constructs plus inhibitor. The source says: (§1) SH-SY5Y neuroblastoma cells are insensitive to Fas-mediated apoptosis. We used the well-characterized Fas-positive human neuroblastoma cell line SH-SY5Y to investigate Fas signaling in neuronal cells. Because Fas is best known as an inducer of apoptosis, we began by examining anti-Fas-treated SH-SY5Y cells for evidence of Fas-induced apoptosis. Jurkat cells, a human T cell leukemia line considered a model for Fas-mediated apoptosis (Wilson, D. et al., 1999, Cell Immunol., 194:67), provided a positive control. We confirmed that SH-SY5Y cells expressed cell surface Fas by flow cytometry. We then performed cell cycle analysis by flow cytometry on untreated and anti-Fas-treated Jurkat and SH-SY5Y cells after 48 hours in culture.
(§2) As previously reported, Jurkat T cells underwent Fas-induced apoptosis (7.6+2.8% apoptotic cells in the untreated cultures versus 31.3±3.5% in the anti-Fas antibody-treated cultures) (Wilson, D. et al., 1999, Cell Lnmunol., 194:67). […] We then treated the cells with Fas Ligand (FasL) constructs, consisting of FasL fused to a linker peptide and a FLAG-tag that facilitate formation of active trimers. […] Conversely, blockade of the ERK pathway by the MEK1-specific inhibitor PD98059 had no effect on Jurkat apoptosis. […] In addition, we examined replicate populations of cells for evidence of caspase 8 cleavage as an indication of Fas-induced apoptosis, after 4 hours in culture with control antibodies or anti-Fas antibodies.

The subject of data set [1] is SH-SY5Y neuroblastoma cells. Described as above. The following applies: for effect on apoptosis of FasL-treated neuroblastoma cells: SH-SY5Y, FasL constructs plus inhibitor. In kind it is cell-based, human.
From the text: as §1, §2

Data set [2] deals with caspase 8. In words: caspase 8 cleavage in Jurkat cells. The following applies: for effect on caspase 8 cleavage: Jurkat cells stimulated through Fas, plus inhibitor. It counts as cell-based, human.
From the text: as §2
(§3) Furthermore, SH-SY5Y cells expressed dramatically less caspase 8 than did Jurkat cells, although they expressed similar levels of FLIP and of Fas. Low levels of caspase 8 expression and inefficient (or non-physiological) Fas ligation by anti-Fas antibody could have masked potential Fas-induced caspase 8 cleavage in SH-SY5Y cells. Therefore, we stimulated the cells with FasL constructs and normalized protein loading to equivalent caspase 8 (instead of equivalent total protein).

A further data set relates to ERK. Put plainly: ERK activation (dual phosphorylation at threonine 202 and tyrosine 204) in SH-SY5Y cells. It counts as cell-based, human. The following applies: for effect on Fas-induced ERK activation: plus inhibitor. How it is done:
Fas engagement induces ERK activation and p35 expression in SY-SHSY cells. Fas cross-linking has been reported to activate ERK in glioma cells (Shinohara, H. et al., 2000, Cancer Research, 60:1766). […] Fas-induced ERK activation was inhibited by PD98059, but appeared to be caspase 8 independent as it was not affected by […]. ERK activation was detected within five minutes of Fas engagement, and persisted for up to 150 minutes.

Another data set has as its system DRG neurons. In words: dorsal root ganglia (DRG) neurite outgrowth assay. The following applies: for effect on Fas-induced neurite growth: DRGs stimulated through Fas; for neurite outgrowth from DRGs: neonatal mice. In kind it is cell-based, mice. The source says: We have shown that engaging Fas on sensory neurons induces a rapid, extensive regenerative response. We used the dorsal root ganglia (DRG) neurite outgrowth assay to determine whether Fas engagement could induce axon regeneration in vitro. […] We cultured DRGs with anti-Fas antibodies, with isotype matched control antibodies (as a negative control) or with NGF (as a positive control).
Fas engagement induces neurite outgrowth and p35 upregulation in dorsal root ganglia (D)RG) explants. To determine whether Fas-induced activation of the ERK/p35 pathway in neuroblastoma cells correlated with neurite sprouting in primary neurons, we used the DRG neurite outgrowth assay, a well characterized model for axon regeneration from primary neurons in vitro (Harada, T. et al., 2001, Nat. Cell Biol., 3:453). DRGs are collections of sensory neuron cell bodies, together with supporting Schwann cells and fibroblasts. […] We examined Fas expression selectively on the DRG neurons by flow cytometric analysis of DRG cells positive for neuron-specific tubulin III, thus excluding Schwann cells and other non-neural cell types from the analysis. […] The uniform shift in fluorescence intensity, without the presence of distinct subpopulations, indicates uniform Fas expression on the DRG neurons (geometric mean fluorescence intensity shift from 10.95 with negative control staining to 22.39 with anti-Fas staining). DRG explants were cultured with anti-Fas antibodies, with isotype-matched control antibodies (as a negative control), or with NGF (as a positive control). […] Fas-induced neurite outgrowth was indistinguishable from NGF-induced neurite outgrowth kinetically and by morphological criteria (neurite numbers, length, and branching), and could not be differentiated by blinded observers. Fas-induced neurite growth was robust and prolific, completely filling the wells of 96-well plates after two weeks in culture. […] Thus, Fas engagement induced a rapid and prolific neurite outgrowth response in primary sensory neurons.

The test system of data set [3] is p35. Put plainly: p35 upregulation in DRG explants (Western blots). In kind it is cell-based, mice. The following applies: 24-hour stimulation, p35 normalized to actin. The source says:
As in SH-SY5Y neurons, Fas engagement induced p35 upregulation in DRG explants after 24-hour stimulation. […] Fas-induced neurite growth is independent of NGF and caspase 8 function, but dependent on ERK activation.

The next data set concerns Fas (CD95). In words: cell surface Fas on C17.2 neuronal stem cells after H2O2. It counts as cell-based, mouse. Particulars: C17.2 cells, 24-hr exposure, 0.25 mM. How it is done: Non-permeabilized cells were stained with antibodies to the cell surface receptors Fas (CD95) (Pharmingen) or with antibodies to uncoupling proteins (anti-UCP2 antibody) (Alpha Diagnostic International). Antibodies for both the isotype control and actual stain were added to the cell suspension, mixed, and then placed on ice for and incubation of 25 minutes in the dark. Subsequently the cells were centrifuged at 300×g for 5 minutes and the supernatant removed. The cells were washed one time with 100 μL of PBS/2% FBS and then transferred into flow cyotmetric tubes containing 500 μL of PBS/2% FBS for analysis.
We have measured the levels of intracellular H2O2 in these cells. […] C17.2 cells from passage 15 contained 4-fold higher amount of UCP-2 than C17.2 cells at passage 11. Ts65Dn mice and controls fed regular and fatty acid enriched diet. The effects of dietary supplementation with alpha lipoic acid (LA) and […] (ALCAR) on the Ts65Dn mouse and the strain matched control animals have been examined. […] We attempted this supplementation with old (18 months) Ts65Dn mice.
C17.2 mouse neuronal stem cells (a kind gift from Dr. Evan Schnyder, Harvard) were cultured as described in the Methods above. The cells were treated or not with H2O2 at the concentration indicated on the graphs of FIG. 2. […]

The next data set relates to B7.1. Put plainly: cell surface B7.1 on C17.2 neuronal stem cells after H2O2. The following applies: C17.2 cells, 24-hr exposure, 0.25 mM. It counts as cell-based, mouse.
Data set [4] deals with p35. In words: Fas-induced p35 expression in SH-SY5Y cells. It counts as cell-based, human. Particulars: anti-Fas antibodies plus inhibitor. How it is done: Sustained activation of ERK for more than 80 minutes was necessary and sufficient for NGF-inducible neurite outgrowth, and p35 upregulation driven by sustained ERK activation is an essential component of this pathway (Pang, L. et al., 1995, J. Biol. Chem., 270:13585; Harada, T. et al., 2001, Nat. Cell Biol., 3:453). Thus, we examined SH-SY5Y cells for Fas-induced p35 expression. […] Thus, Fas engagement-induced sustained ERK activation and MEKI / ERK-dependent p35 expression in SH-SY5Y neuroblastoma cells.

Data set [5] concerns caspase 8. Put plainly: caspase 8 cleavage in SH-SY5Y cells. In kind it is cell-based, human.
From the text: as §2, §3

As for z-IETD-frnk, in the data set with Jurkat cells, the “effect on apoptosis induction by FasL constructs” value was “completely abrogated”. The “effect on apoptosis of FasL-treated neuroblastoma cells” value in data set [1] is on record as “Neither IETD nor PD98059 had any effect”. In addition, the “effect on caspase 8 cleavage” value in the data set on caspase 8 [2] is on record as “reduced to background levels”. In the data set on ERK, the “effect on Fas-induced ERK activation” value was “not affected”. In the data set with DRG neurons, the “effect on Fas-induced neurite growth” value is listed as “not affected; also recorded: not blocked”.
Consider nerve growth factor [NGF], for which the “neurite outgrowth from DRGs” value with DRG neurons (DRG explants) is “sprout neurites”. For the same molecule, the “neurite outgrowth in dissociated DRG cultures” value in the data set with DRG neurons (glial growth suppressed with cytosine arabinoside) is recorded as “induced”. Besides, the “neurite outgrowth from DRGs of lpr mice” value in the data set on DRG neurons (lpr mice, low to absent Fas expression) is “delayed and diminished neurite outgrowth”. For the same molecule, the “p35 upregulation compared to untreated DRGs” value in the data set with p35 [3] stood at 3.3 fold.
With `OO` [H2O2], the “cell surface expression of Fas (CD95)” value with Fas (CD95) is given as “increased”. For the same molecule, the “cell surface expression of B7.1” value in the data set on B7.1 was “increased”.
As for `COc1cccc(-c2cc(=O)c3ccccc3o2)c1N` [PD98059], the “effect on apoptosis induction by FasL constructs” value in the data set with Jurkat cells is “no effect”. In addition, the “effect on apoptosis of FasL-treated neuroblastoma cells” value in [1] is listed as “Neither IETD nor PD98059 had any effect”. The “effect on caspase 8 cleavage” value in the data set on caspase 8 [2] is “unaffected”. Further, the “effect on Fas-induced ERK activation” value with ERK is on record as “inhibited”. The “effect on Fas-induced p35 upregulation” value with p35 [4] is on record as “prevented”. Further, the “toxicity to other DRG cells such as Schwann cells” value with DRG neurons (DRG explants) is listed as “not toxic”. For the same molecule, the “effect on Fas-induced neurite growth” value in the data set with DRG neurons was “prevented”. Also, in the data set on DRG neurons (DRGs stimulated with NGF), the “effect on NGF-induced neurite outgrowth” value is “blocked”. Moreover, the “toxicity to DRG neurons” value with DRG neurons (inhibitor washed out after two days, restimulated with NGF or FasL constructs) is given as “did not kill the neurons”.

B1: FasL constructs: FasL fused to a linker peptide and a FLAG-tag that facilitate formation of active trimers (protein, UniProt P48023 130-281, looked up)
Tumor necrosis factor ligand …: QIGHPSPPPEKKELRKVAHLTGKSNSRSMPLEWEDTYGIVLLSGVKYKKGGLVINETGLYFVYSKVYFRGQSCNNLPLSHKVYMRNSKYPQDLVMMEGKMMSYCTTGQMWARSSYLGAVFNLTSADHLYVNVSELSLVNFEESQTFFGLYKL
modifications: linker, FLAG tag
Molecule B1 registered an apoptotic cells in the data set with Jurkat cells (Jurkat, after 24 hour treatment) above 90%. The apoptotic response result in data set [1] (SH-SY5Y cells) is given as “failed to induce any detectable apoptotic response”. Also, the “increase of caspase 8 cleavage, treated versus untreated cells” value with caspase 8 [2] (Jurkat cells, loading normalized to equivalent caspase 8) was “more than 60%”. Further, the “induction of caspase 8 cleavage” value in the data set with caspase 8 [5] was “no increase”. Moreover, the ERK activation entry with ERK is “triggered ERK activation”. In addition, the “neurite outgrowth from DRGs” value in the data set with DRG neurons (DRG explants) is listed as “induced robust neurite growth”.
